Counter-ions that a name gives are not always drawn.
How the values were obtained:
[1] = CNS penetration by bolus administration; format: in vivo, male CD Sprague Dawley rats; settings: 1 mg/kg intravenously, blood and brain at 5 min post-dose
Procedure: Compounds are dosed intravenously at a nominal dose level of 1 mg/kg to male CD Sprague Dawley rats. Compounds are formulated in 5% DMSO/45% PEG200/50% water. Blood samples are taken under terminal anaesthesia with isoflurane at 5 min post-dose and the brains are also removed for assessment of brain penetration. Blood samples are taken directly into heparinised tubes. Blood samples are prepared for analysis using protein precipitation and brain samples are prepared using extraction of drug from brain by homogenisation and subsequent protein precipitation. The concentration of parent drug in blood and brain extracts is determined by quantitative LC-MS/MS analysis using compound-specific mass transitions.

human H1 receptor = molecular target: T1, human H1 receptor (Homo sapiens, UniProt P35367); assay: Histamine H1 functional antagonist assay (FLIPR): antagonist pA2; format: cell-based
T1 construct: expressed in transfected cells
Procedure: The human H1 receptor is cloned using known procedures described in the literature [Biochem. Biophys. Res. Commun., 201(2):894 (1994)]. Chinese hamster ovary (CHO) cells stably expressing the human H1 receptor are generated according to known procedures described in the literature [Br. J. Pharmacol., 117(6):1071 (1996)].
The histamine H1 receptor expressing CHO cells are seeded into non-coated black-walled clear bottom 96-well tissue culture plates as described above.
Following overnight culture, growth medium is removed from each well, washed with 200 μl phosphate buffered saline (PBS) and is replaced with 50 μl loading dye (250 μM Brilliant Black, 1 μM Fluo-4 diluted in Tyrodes buffer+probenecid (145 mM NaCl, 2.5 mM KCl, 10 mM HEPES, 10 mM D-glucose, 1.2 mM MgCl2, 1.5 mM CaCl2, 2.5 mM probenecid, pH adjusted to 7.40 with NaOH 1.0 M)). Cells are incubated for 45 min at 37° C. The loading buffer is removed and the cells are washed as above, and 90 μl of Tyrodes buffer+probenecid is added to each well. 10 μl of test compound, diluted to the required concentration in Tyrodes buffer+probenecid (or 10 μl Tyrodes buffer+probenecid as a control) is added to each well and the plate is incubated for 30 min at 37° C., 5% CO2.
The plates are then placed into a FLIPR™ (Molecular Devices, UK) to monitor cell fluorescence (λex=488 nm, λEM=540 nm) in the manner described in Sullivan et al., (In: Lambert DG (ed.), Calcium Signaling Protocols, New Jersey: Humana Press, 1999, 125-136) before and after the addition of 50 μl histamine over a concentration range of 1 mM-0.1 nM. The resultant concentration response curves are analysed by non-linear regression using a standard four parameter logistic equation to determine the histamine EC50, the concentration of histamine required to produce a response of 50% of the maximum response to histamine. The antagonist pA2 is calculated using the following standard equation: pA2=log(DR−1)−log[B] where DR=dose ratio, defined as EC50antagonist-treated/EC50control and [B]=concentration of antagonist.

T1 sequence (P35367 whole entry): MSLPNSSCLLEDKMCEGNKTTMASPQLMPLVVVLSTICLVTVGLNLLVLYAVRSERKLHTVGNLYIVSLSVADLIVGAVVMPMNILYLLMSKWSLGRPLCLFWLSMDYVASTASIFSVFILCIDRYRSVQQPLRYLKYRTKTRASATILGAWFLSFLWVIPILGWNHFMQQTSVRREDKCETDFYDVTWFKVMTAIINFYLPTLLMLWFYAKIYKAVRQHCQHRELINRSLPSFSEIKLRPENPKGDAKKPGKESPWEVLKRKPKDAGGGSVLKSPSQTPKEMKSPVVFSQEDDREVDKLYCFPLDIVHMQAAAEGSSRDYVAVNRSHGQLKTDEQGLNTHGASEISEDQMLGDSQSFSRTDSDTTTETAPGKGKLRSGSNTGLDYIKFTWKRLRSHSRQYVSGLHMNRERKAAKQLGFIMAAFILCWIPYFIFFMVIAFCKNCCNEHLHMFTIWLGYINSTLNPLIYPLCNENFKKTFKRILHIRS

| Structure (SMILES) | CNS penetration [1] | Kb (human H1 receptor) |
| --- | --- | --- |
| O=C(O)CCc1ccc2cc(Cc3ccccc3)cc(N3CCN(CCc4ccc(OCCCN5CCCCCC5)cc4)CC3)c2n1 [Example 1, 3-[8-{4-[2-(4-{[3-(Hexahydro-1H-azepin-1-yl)propyl]oxy}phenyl)ethyl]-1-piperazinyl}-6-(phenylmethyl)-2-quinolinyl]propanoic Acid, Formate Salt] | low CNS penetration | < 10 nM |
| CCc1cc(N2CCN(CCc3ccc(OCCCN4CCCCCC4)cc3)CC2)c2nc(CCC(=O)O)ccc2c1 [Example 2, 3-(6-Ethyl-8-{4-[2-(4-{[3-(hexahydro-1H-azepin-1-yl)propyl]oxy}phenyl)ethyl]-1-piperazinyl}-2-quinolinyl)propanoic Acid, Formate Salt] | low CNS penetration | < 10 nM |
| O=C(O)CCc1ccc2cccc(N3CCN(CCc4ccc(OCCCN5CCCCCC5)cc4)CC3)c2n1 [Example 3, 3-(8-{4-[2-(4-{[3-(Hexahydro-1H-azepin-1-yl)propyl]oxy}phenyl)ethyl]-1-piperazinyl}-2-quinolinyl)propanoic Acid, Formic Acid (1:2)] | low CNS penetration | < 10 nM |
| O=C(O)CCc1cnc2c(N3CCN(CCc4ccc(OCCCN5CCCCCC5)cc4)CC3)cccc2c1 [Example 5, 3-(8-{4-[2-(4-{[3-(hexahydro-1H-azepin-1-yl)propyl]oxy}phenyl)ethyl]-1-piperazinyl}-3-quinolinyl)propanoic Acid, Formic Acid Salt] |  | < 100 nM |
| CCCCc1cc(N2CCN(CCc3ccc(OCCCN4CCCCCC4)cc3)CC2)c2nc(CCC(=O)O)ccc2c1 [Example 6, 3-(6-Butyl-8-{4-[2-(4-{[3-(hexahydro-1H-azepin-1-yl)propyl]oxy}phenyl)ethyl]-1-piperazinyl}-2-quinolinyl)propanoic Acid, Formate Salt] |  | < 10 nM |

Source: patent US20090181950A1, “Histamine Receptor Antagonists Comprising an Azepin Core” (GLAXO GROUP LIMITED, priority 2006, published 2009)
